Data set [1] can be described thus: Assay (III) ThT fibrillation assay for physical stability. It is filed as physicochemical. The conditions noted are these: ThT fibrillation assay. Summed up: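 Freshly prepared formulations, pH-adjusted, with 1 μM ThT; four or eight replicates incubated at 37 °C under 960 rpm orbital shaking. Fluorescence (ex 444/em 485 nm) read every 20 min; […]. Peptide concentration measured by RP-HPLC before and after the run.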

Data set [2] concerns the target T1, human calcitonin receptor (Homo sapiens, UniProt P30988).
T1 construct: expressed in transfected cells; host or cells: BHK570
T1 sequence (P30988 25-474): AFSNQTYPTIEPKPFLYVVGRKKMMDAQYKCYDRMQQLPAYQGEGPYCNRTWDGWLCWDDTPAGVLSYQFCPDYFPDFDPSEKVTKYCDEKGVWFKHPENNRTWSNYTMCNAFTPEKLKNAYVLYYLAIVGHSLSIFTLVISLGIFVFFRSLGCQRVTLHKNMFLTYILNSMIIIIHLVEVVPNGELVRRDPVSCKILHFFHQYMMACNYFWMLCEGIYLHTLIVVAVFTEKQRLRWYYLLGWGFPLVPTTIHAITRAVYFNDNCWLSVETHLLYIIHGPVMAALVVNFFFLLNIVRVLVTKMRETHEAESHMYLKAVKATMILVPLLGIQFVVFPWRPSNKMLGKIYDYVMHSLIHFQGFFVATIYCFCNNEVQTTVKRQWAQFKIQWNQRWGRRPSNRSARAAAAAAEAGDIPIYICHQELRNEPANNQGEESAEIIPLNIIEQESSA
In words: Assay (II)a functional CRE-luciferase assay, human calcitonin receptor. The conditions noted are these: Table 7; human calcitonin (CTa) receptor. In kind it is cell-based.

For data set [3], the target named is T2, human amylin receptor (amylin 3(a) receptor: human calcitonin receptor + RAMP-3) (Homo sapiens, UniProt O60896+P30988).
T2 construct: expressed in transfected cells; host or cells: BHK570
T2 sequence (P30988 25-474): T1 sequence (P30988 25-474)
T2 sequence (O60896 24-148 partner): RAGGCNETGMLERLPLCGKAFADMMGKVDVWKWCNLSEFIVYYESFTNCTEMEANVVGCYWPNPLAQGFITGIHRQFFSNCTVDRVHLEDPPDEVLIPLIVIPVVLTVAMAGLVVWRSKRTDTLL
In words: Assay (II)a functional CRE-luciferase assay, human amylin receptor. In kind it is cell-based. The conditions noted are these: Table 2; BHK amylin 3(a)-receptor/CRE-luc cells.

Data set [4] in a line: Assay (IV) determination of solubility. In kind it is physicochemical. Summed up: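 Polypeptide in water (~500 nmol/ml) mixed 1:1 with 100 mM glycylglycine (pH 3.0–5.0) or bistrispropane (pH 6.0–8.0) buffers. Held 18 hours at room temperature, then centrifuged. Polypeptide remaining in solution quantified by HPLC.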
Setting [5] is: bistrispropane buffer, pH 6, pH 6.0, read-out: Solubility pH 6.0.
Setting [6] is: bistrispropane buffer, pH 6.5, pH 6.5, read-out: Solubility pH 6.5.
Where [7] appears, read: bistrispropane buffer, pH 7, pH 7.0, 18 hours at room temperature, Table 3, read-out: Solubility pH 7.0.
[8] abbreviates: bistrispropane buffer, pH 7, pH 7.0, read-out: Solubility pH 7.0.
Setting [9] is: bistrispropane buffer, pH 7.5, pH 7.5, read-out: Solubility pH 7.5.
[10] abbreviates: bistrispropane buffer, pH 8, pH 8.0, read-out: Solubility pH 8.0.
The mark [11] stands for this setting: glycylglycine buffer, pH 3, pH 3.0, read-out: Solubility pH 3.0.
The mark [12] stands for this setting: glycylglycine buffer, pH 4, pH 4.0, 18 hours at room temperature, Table 2, read-out: Solubility pH 4.0.
Setting [13] is: glycylglycine buffer, pH 4, pH 4.0, read-out: Solubility pH 4.0.
The mark [14] stands for this setting: glycylglycine buffer, pH 5, pH 5.0, read-out: Solubility pH 5.0.

≈ marks a conversion by molar mass, not a printed value. Read-outs that look alike come from different tables or passages of the source. Starred links: 1 amine or outer side, 2 acyl side, 3 side chain; linkers in the order of their positions; H or OH if unused. Positions of bridges follow the written chain, without caps; N, C: chain ends. Residues, ends and D or L forms follow the SMILES beside them. Groups on a side chain read outwards from the residue. *: point of attachment. C18 diacid = O=C(O)CCCCCCCCCCCCCCCCC(=O)*; γGlu = O=C(O)[C@H](CCC(=O)[*:2])N[*:1]; AEEA = NCCOCCOCC(=O)O

From patent US8722849B2, “Polypeptides” (Novo Nordisk A/S, priority 2011, dated 2014) come the findings set out here.

The EC50 is the midpoint of the concentration-response curve. One may read the solubility as the concentration that dissolves in the medium under given conditions.

On to `CC[C@H](C)[C@H](NC(=O)[C@@H]1CCCN1C(=O)CNC(=O)[C@H](Cc1ccccc1)NC(=O)[C@H](CC(N)=O)NC(=O)[C@H](CC(N)=O)NC(=O)[C@H](CO)NC(=O)[C@H](CO)NC(=O)[C@H](Cc1c[nH]cn1)NC(=O)[C@H](Cc1c[nH]cn1)NC(=O)[C@H](CC(C)C)NC(=O)[C@H](Cc1ccccc1)NC(=O)[C@H](CCC(=O)O)NC(=O)[C@H](C)NC(=O)[C@H](CC(C)C)NC(=O)[C@H](CCCNC(=N)N)NC(=O)[C@H](CCC(N)=O)NC(=O)[C@@H](NC(=O)[C@H](C)NC(=O)[C@@H]1CSSC[C@H](NC(=O)[C@H](CCC(=O)O)NC(=O)COCCOCCNC(=O)COCCOCCNC(=O)CC[C@H](NC(=O)CCCCCCCCCCCCCCCCC(=O)O)C(=O)O)C(=O)N[C@@H](CC(N)=O)C(=O)N[C@@H]([C@@H](C)O)C(=O)N[C@@H](C)C(=O)N[C@@H]([C@@H](C)O)C(=O)N1)[C@@H](C)O)C(=O)N[C@@H](CC(C)C)C(=O)N1CCC[C@H]1C(=O)N1CCC[C@H]1C(=O)N[C@H](C(=O)N[C@@H](CC(N)=O)C(=O)N[C@H](C(=O)NCC(=O)N[C@@H](CO)C(=O)N[C@@H](CC(N)=O)C(=O)N[C@H](C(=O)N1CCC[C@H]1C(N)=O)[C@@H](C)O)C(C)C)[C@@H](C)O` [Example 82, N-alpha-[2-(2-{2-[2-(2-{2-[(S)-4-Carboxy-4-(17-carboxyheptadecanoylamino)butyrylamino]ethoxy}ethoxy)acetylamino]ethoxy}ethoxy)acetyl]-[Glu1,Glu14,His17,Pro37]-pramlintide] ({C18 diacid-γGlu-AEEA-AEEA}-ECNTATCATQRLAEFLHHSSNNFGPILPPTNVGSNTP-NH2; disulfide 2-7 (inferred); C-terminus assumed), for which the “ThT pH 4.0 lag time (h)” value in data set [1] is 14 h. Further, the EC50 in data set [2] came out at 0.288 nM; in data set [3] it was 0.108 nM. Further, the solubility at 18 h in data set [4] (setting [5]), in data set [4] (setting [6]), in data set [4] (setting [7]), in data set [4] (setting [8]), in data set [4] (setting [9]) and in data set [4] (setting [10]) was greater than 200 µM throughout. Also, the solubility at 18 h in data set [4] (setting [11]), in data set [4] (setting [12]), in data set [4] (setting [13]) and in data set [4] (setting [14]) was greater than 200 µM throughout.
On to `CC[C@H](C)[C@H](NC(=O)[C@@H]1CCCN1C(=O)CNC(=O)[C@H](Cc1ccccc1)NC(=O)[C@H](CC(N)=O)NC(=O)[C@H](CC(N)=O)NC(=O)[C@H](CO)NC(=O)[C@H](CO)NC(=O)[C@H](Cc1c[nH]cn1)NC(=O)[C@H](Cc1c[nH]cn1)NC(=O)[C@H](CC(C)C)NC(=O)[C@H](Cc1ccccc1)NC(=O)[C@H](CCC(=O)O)NC(=O)[C@H](C)NC(=O)[C@H](CC(C)C)NC(=O)[C@H](CCCNC(=N)N)NC(=O)[C@H](CCC(N)=O)NC(=O)[C@@H](NC(=O)[C@H](C)NC(=O)[C@@H]1CSSC[C@H](NC(=O)[C@H](Cc2c[nH]cn2)NC(=O)[C@H](Cc2c[nH]cn2)NC(=O)[C@H](Cc2c[nH]cn2)NC(=O)CC[C@H](NC(=O)CCCCCCCCCCCCCCCCC(=O)O)C(=O)O)C(=O)N[C@@H](CC(N)=O)C(=O)N[C@@H]([C@@H](C)O)C(=O)N[C@@H](C)C(=O)N[C@@H]([C@@H](C)O)C(=O)N1)[C@@H](C)O)C(=O)N[C@@H](CC(C)C)C(=O)N1CCC[C@H]1C(=O)N1CCC[C@H]1C(=O)N[C@H](C(=O)N[C@@H](CC(N)=O)C(=O)N[C@H](C(=O)NCC(=O)N[C@@H](CO)C(=O)N[C@@H](CC(N)=O)C(=O)N[C@H](C(=O)N[C@@H](Cc1ccc(O)cc1)C(N)=O)[C@@H](C)O)C(C)C)[C@@H](C)O` [Example 45, N-alpha-[(S)-4-Carboxy-4-(17-carboxyheptadecanoylamino)butyryl]-His-His-[His1,Glu14,His17]-pramlintide] ({C18 diacid-γGlu}-HHHCNTATCATQRLAEFLHHSSNNFGPILPPTNVGSNTY-NH2; disulfide 4-9 (inferred); C-terminus assumed), for which, in data set [1], the “ThT pH 4.0 lag time” value is listed as 36.7 h. Moreover, the “ThT pH 4.0 lag time (h)” value in data set [1] amounted to 36.7 h. The EC50 in data set [2] worked out at 0.265 nM; in data set [3] it was 0.0624 nM. The solubility at 18 h is 188 µM (≈ 886 µg/mL) in data set [4] (setting [5]); 48 µM (≈ 226 µg/mL) in data set [4] (setting [6]); 42 µM (≈ 198 µg/mL) in data set [4] (setting [8]); 134 µM (≈ 631 µg/mL) in data set [4] (setting [9]); greater than 200 µM in data set [4] (setting [10]); greater than 200 µM in data set [4] (setting [11]). The solubility at 18 h in data set [4] (setting [12]), in data set [4] (setting [13]) and in data set [4] (setting [14]) was greater than 200 µM in each case.
As for `CC[C@H](C)[C@H](NC(=O)[C@@H]1CCCN1C(=O)CNC(=O)[C@H](Cc1ccccc1)NC(=O)[C@H](CC(N)=O)NC(=O)[C@H](CC(N)=O)NC(=O)[C@H](CO)NC(=O)[C@H](CO)NC(=O)[C@H](Cc1c[nH]cn1)NC(=O)[C@H](Cc1c[nH]cn1)NC(=O)[C@H](CC(C)C)NC(=O)[C@H](Cc1ccccc1)NC(=O)[C@H](CCC(=O)O)NC(=O)[C@H](C)NC(=O)[C@H](CC(C)C)NC(=O)[C@H](CCCNC(=N)N)NC(=O)[C@H](CCC(N)=O)NC(=O)[C@@H](NC(=O)[C@H](C)NC(=O)[C@@H]1CSSC[C@H](NC(=O)[C@@H](N)CCCCNC(=O)CC[C@H](NC(=O)CCCCCCCCCCCCCCCCC(=O)O)C(=O)O)C(=O)N[C@@H](CC(N)=O)C(=O)N[C@@H]([C@@H](C)O)C(=O)N[C@@H](C)C(=O)N[C@@H]([C@@H](C)O)C(=O)N1)[C@@H](C)O)C(=O)N[C@@H](CC(C)C)C(=O)N1CCC[C@H]1C(=O)N1CCC[C@H]1C(=O)N[C@H](C(=O)N[C@@H](CC(N)=O)C(=O)N[C@H](C(=O)NCC(=O)N[C@@H](CO)C(=O)N[C@@H](Cc1c[nH]cn1)C(=O)N[C@H](C(=O)N[C@@H](Cc1ccc(O)cc1)C(N)=O)[C@@H](C)O)C(C)C)[C@@H](C)O` [Example 94, N-epsilon1-[(S)-4-Carboxy-4-(17-carboxyheptadecanoylamino)butyryl]-[Glu14,His17,His35]-pramlintide] (H-K([γGlu-C18 diacid])CNTATCATQRLAEFLHHSSNNFGPILPPTNVGSHTY-NH2; disulfide 2-7 (inferred); N-terminus assumed), the “ThT pH 4.0 lag time (h)” value in data set [1] was found to be 11.3 h. Also, the EC50 in data set [2] was found to be 0.286 nM; in data set [3] it was 0.119 nM. Further, the solubility at 18 h in data set [4] (setting [5]) was greater than 200 µM; in data set [4] (setting [6]) it was greater than 200 µM; in data set [4] (setting [7]) it was 138 µM (≈ 614 µg/mL); in data set [4] (setting [8]), 138 µM (≈ 614 µg/mL); in data set [4] (setting [9]) it was greater than 200 µM; in data set [4] (setting [10]) it was greater than 200 µM. Further, the solubility at 18 h in data set [4] (setting [11]), in data set [4] (setting [12]), in data set [4] (setting [13]) and in data set [4] (setting [14]) was greater than 200 µM throughout.
